In ChEMBL document CHEMBL5634085, “Design, synthesis and antitrypanosomatid activity of 2-nitroimidazole-3,5-disubstituted isoxazole compounds based on benznidazole” (Eur J Med Chem, 2023):
The source made the active and inactive calls. The rule behind the calls is not given here.

How the values were obtained:
[1] = Selectivity index, ratio of CC50 for monkey LLC-MK2 cells to IC50 for Trypanosoma cruzi Tulahuen lacZ expressing beta-galactosidase amastigotes infected monkey LLC-MK2 cells; assay type: toxicity; conditions: read-out: Ratio CC50/IC50
[2] = tested on: Trypanosoma cruzi; assay: Effect on infection-mediated heart weight in Trypanosoma cruzi Y strain trypomastigotes infected in BALB/c mouse model at 100 mg/kg/day, po administered for consecutive 10 days; assay type: functional, organism-based; conditions: time 10.0 day
[3] = tested on: Trypanosoma cruzi; assay: Antitrypanosomal activity against Trypanosoma cruzi Y trypomastigotes infected in BALB/c mouse model assessed as reduction of parasitemia level at 25 mg/kg/day, po administered via gavage for consecutive 10 days and measured on day 5,7,9 and 11; assay type: functional, organism-based; conditions: time 11.0 day
[4] = tested on: Trypanosoma cruzi; assay: Antitrypanosomal activity against Trypanosoma cruzi Y trypomastigotes infected in BALB/c mouse model assessed as reduction of parasite load in cardiac tissue by measuring reduction in DNA copy number at 25 to 100 mg/kg/day, po administered via gavage observed on 11 day of post infection by qPCR analysis relative to control; assay type: functional; design: scale not given: the % may be the effect or the level left; conditions: dose 25-100 mg/kg/day
[5] = tested on: Trypanosoma cruzi; assay: Antitrypanosomal activity against Trypanosoma cruzi Y strain trypomastigotes infection induced hepatosplenomegaly BALB/c male mouse model assessed as change in infection-mediated liver weight at 25 mg/kg/day, po administrated for consecutive 10 days; assay type: functional, organism-based; conditions: time 10.0 day
[6] = Toxicity in BALB/c mouse infected with Trypanosoma cruzi Y trypomastigotes assessed as animal survival at 100 mg/kg/day, po administrated via gavage for consecutive 10 days relative to control; assay type: organism-based; conditions: in vivo, time 10 day
[7] = Toxicity in BALB/c mouse infected with Trypanosoma cruzi Y trypomastigotes assessed as body weight gain at 100 mg/kg/day, po administrated via gavage for consecutive 10 days; assay type: organism-based; conditions: in vivo, 240 h, time 10 day
[8] = Toxicity in BALB/c mouse infected with Trypanosoma cruzi Y trypomastigotes assessed as animal survival at 25 mg/kg/day, po administrated via gavage for consecutive 10 days relative to control; assay type: organism-based; conditions: in vivo, time 10 day
[9] = Toxicity in BALB/c mouse infected with Trypanosoma cruzi Y trypomastigotes assessed as body weight gain at 25 mg/kg/day, po administrated via gavage for consecutive 10 days; assay type: organism-based; conditions: in vivo, 240 h, time 10 day
[10] = tested on: Trypanosoma cruzi; assay: (§1) Antitrypanosomal activity against Trypanosoma cruzi Tulahuen lacZ expressing beta-galactosidase amastigotes infected in monkey LLC-MK2 cells assessed as inhibition of amastigotes pre-infected in cells for 48 hrs followed by compound addition and measured after 72 hrs by CPRG reagent based absorbance analysis; assay type: functional, organism-based
[11] = tested on: Trypanosoma cruzi; assay: Effect on infection-mediated heart weight in Trypanosoma cruzi Y strain trypomastigotes infected in BALB/c mouse model at 25 mg/kg/day, po administered for consecutive 10 days; assay type: functional, organism-based; conditions: time 10.0 day
[12] = tested on: Trypanosoma cruzi; assay: Antitrypanosomal activity against Trypanosoma cruzi Y strain trypomastigotes infection induced hepatosplenomegaly BALB/c male mouse model assessed as change in infection-mediated spleen weight at 25 mg/kg/day, po administrated for consecutive 10 days; assay type: functional, organism-based; conditions: time 10.0 day
[13] = tested on: Trypanosoma cruzi; assay: Binding affinity to Trypanosoma cruzi type I nitro reductase at 10 uM incubated for 5 mins in the presence of NADH by microplate reader analysis
[14] = tested on: Trypanosoma cruzi; assay: Binding affinity to Trypanosoma cruzi type I nitro reductase at 25 uM incubated for 5 mins in the presence of NADH by microplate reader analysis
[15] = Cytotoxicity against monkey LLC-MK2 cells incubated for 72 hrs by MTT assay; assay type: toxicity, cell-based, Macaca mulatta; conditions: rhesus monkey
[16] = tested on: Trypanosoma cruzi; assay: as §1, with “Potency index, ratio of benznidazole IC50 to test compound IC50 for antitrypanosomal” for “Antitrypanosomal”; assay type: functional
[17] = tested on: Leishmania amazonensis; assay: Antileishmanial activity against Leishmania amazonensis IFLA/BR/1967/PH8 amastigotes infected in mouse peritoneal macrophage assessed as inhibition of parasite growth pre-infected in cells for 4 hrs followed by compound addition and measured after 24 hrs by Giemsa staining based analysis; assay type: functional, organism-based; conditions: IFLA/BR/1967/PH8, Peritoneal macrophage
[18] = Toxicity in BALB/c mouse infected with Trypanosoma cruzi Y trypomastigotes assessed as body weight loss at 25 mg/kg/day, po administrated via gavage for consecutive 10 days; assay type: organism-based; conditions: in vivo, 240 h, time 10 day
[19] = Selectivity index, ratio of CC50 for cytotoxicity against monkey LLC-MK2 cells to IC50 for antileishmanial activity against Leishmania amazonensis IFLA/BR/1967/PH8 amastigotes infected in mouse peritoneal macrophage; assay type: toxicity, cell-based; conditions: read-out: Ratio CC50/IC50
[20] = Toxicity in BALB/c mouse infected with Trypanosoma cruzi Y trypomastigotes assessed as animal survival at 25 mg/kg/day, po administrated via gavage for consecutive 10 days; assay type: organism-based; conditions: in vivo, 240 h, time 10 day

| Compound | selectivity ratio [1] | Activity [2] | Activity [3] | Activity [4] [%] | Activity [5] | survival at 240 h [6] [%] | Activity [7] | survival at 240 h [8] [%] | Activity [9] | IC50 [10] [µM] | Activity [11] | Activity [12] | Kobs [13] [s⁻¹] | Kobs [14] [s⁻¹] | CC50 at 72 h [15] [µM] | Ratio IC50 [16] | IC50 [17] [µM] | Activity [18] | selectivity ratio [19] | Activity [20] |
| --- | --- | --- | --- | --- | --- | --- | --- | --- | --- | --- | --- | --- | --- | --- | --- | --- | --- | --- | --- | --- |
| O=C(Cn1ccnc1[N+](=O)[O-])NCc1ccccc1 [BENZNIDAZOLE] | > 9.3 | inactive | inactive | 99 | Active | 100 | Non-Toxic | 100 | Non-Toxic | 3.8 | inactive | Active | 0.13 | 0.3 | > 50 | – | – | – | – | – |
| COc1ccc(-c2cc(Cn3ccnc3[N+](=O)[O-])on2)cc1OC | > 200 | – | inactive | – | Active | – | – | – | – | 0.2 | inactive | Active | 0.57 | 0.82 | > 50 | 15 | 19.6 | Toxic | > 2.5 | Toxic |
